Measurements reported in patent US7459455B2, “Pyrimidine compounds” (SmithKline Beecham Corporation, priority 2002, dated 2008).

Assays:
GST-VEGFR2 = molecular target: T1, GST-VEGFR2 (Homo sapiens, UniProt P35968); assay: VEGF-R2 Enzyme Assay (VEGF-E), LANCE method; format: biochemical; conditions: GST-VEGFR2, 75 μM ATP, peptide phosphorylation
T1 construct: GST-VEGFR2, baculovirus expressed recombinant constructs of the intracellular domains of human TIE2 tagged by GST; made in house
Source text: VEGF-R2 Enzyme Assay VEGF-E)
The VEGF enzyme assay used the LANCE method (Wallac) and GST-VEGFR2, baculovirus expressed recombinant constructs of the intracellular domains of human TIE2 tagged by GST. The method measured the ability of the purified enzymes to catalyse the transfer of the γ-phosphate from ATP onto tyrosine residues in a biotinylated synthetic peptide, (biotin-aminohexyl-EEEEYFELVAKKKK-NH2). This peptide phosphorylation was detected using the following procedure: GST-VEGFR2 was incubated for 40-60 mins at room temperature with 75 μM ATP, 5 mM MgCl2, 0.1 mM DTT, 0.1 mg/mL BSA and the test compound (diluted from a 10 mM stock in DMSO for desired concentration) in 100 mM HEPES buffer. The reaction was stopped by the addition of EDTA (final concentration 50 mM). Streptavidin linked-APC (allophycocyanin, Molecular Probe) and Europium-labeled anti-phosphorylated tyrosile antibody (Wallac) were then added at the final concentration of 15 nM and 1 nM, respectively. The APC signal was measured using an ARVO multilabel counter (Wallac Berthold, Japan). The percent inhibition of activity was calculated relative to blank control wells. The concentration of test compound that inhibits 50% of activity (IC50) was interpolated using nonlinear regression (Levernberg-Marquardt) and the equation, γ=Vmax (1−x/(K+x))+Y2, where “K” was equal to the IC50. The IC50 values were converted to pIC50 values, i.e., −log IC50 in Molar concentration.

[1] = test system: Human umbilical cord endothelial cells (HUVEC); assay: VEGF-Driven Cellular Proliferation Assay: BrdU Incorporation Assay (VEGF-C); format: cell-based
Method: VEGF-Driven Cellular Proliferation Assay: BrdU Incorporation Assay (VEGF-C)
Human umbilical cord endothelial cells (HUVEC, Clonetics, CC2519) were passaged in Type I collagen-coated 100-mm petridishes in EGM-MV medium (Clonetics, CC3125) at 37 C in a humidified 5% CO2, 95% air incubator. (HUVEC passaged more than 6 times in vitro were discarded and not subjected to assaying.) The cells were harvested using trypsin/EDTA, counted using a haemocytometer and plated at 5000 cells/well in a Type I-collagen coated 96-well plate (Becton Dickinson, 354407) in M199 medium (Gibco BRL, 12340-030) containing 5% FBS (Hyclone, A 1115-L) and gentamicin (at 50 ug/ml, Gibco BRL). After incubation overnight at 37° C., the media were replaced with 100 ul of M199 serum-free medium containing compounds at various concentrations with 0.6% DMSO and gentamicin. The compounds were diluted in serum-free M199 medium from 10 mM stock solutions prepared in 100% DMSO. After a 30 min incubation at 37° C. the cells were fed with 100 ul of serum-free M199 medium containing gentamicin, 0.2% culture-grade bovine serum albumin (BSA, Sigma A1993) and 20 ng/ml of VEGF (R&D systems, 293-VE) or 0.6 ng/ml of basic FGF (R&D systems, 233-FB), and cultured at 37° C. for another 24 h. The cells were pulsed with bromodeoxyuridine (BrdU at 10 μM in serum-free M199) at 37° C. for an additional 24 h. The incorporation of BrdU into the proliferating HUVEC were analyzed using BrdU Cell Proliferation ELISA (Roche Molecular Biochemicals, 1647229) according to the manufacturer's protocols. The optical density at 450 nm was measured with a multilabel counter (ARVO SX, Wallac). The percent inhibition of cell growth was calculated relative to blank control wells. The concentration of test compound that inhibits 50% of cell growth (IC50) was interpolated using nonlinear regression (Levernberg-Marquardt) and the equation, γ=Vmax (1−x/(K+x))+Y2, where “K” was equal to the IC50. The IC50 values were converted to pIC50 values, i.e., −log IC50 in Molar concentration.

Recombinant GST-Tie2 = molecular target: T2, Recombinant GST-Tie2 (Homo sapiens, UniProt Q02763); assay: Tie2 Fluorescence Polarization Kinase Activity Assay (TIE2-FP); format: biochemical; conditions: activated Tie2, 200 μM ATP
T2 construct: GST
T2 sequence (Q02763 770-1124 limits assumed): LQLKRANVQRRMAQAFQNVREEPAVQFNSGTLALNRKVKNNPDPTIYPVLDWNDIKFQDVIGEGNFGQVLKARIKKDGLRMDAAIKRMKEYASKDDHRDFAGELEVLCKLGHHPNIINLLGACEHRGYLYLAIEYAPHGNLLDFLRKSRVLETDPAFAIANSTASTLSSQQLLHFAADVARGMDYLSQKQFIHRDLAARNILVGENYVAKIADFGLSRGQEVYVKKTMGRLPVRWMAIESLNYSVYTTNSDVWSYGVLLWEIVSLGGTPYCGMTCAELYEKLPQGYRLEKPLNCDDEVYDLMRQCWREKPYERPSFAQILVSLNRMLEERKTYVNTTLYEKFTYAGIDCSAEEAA
Method: Tie2 Fluorescence Polarization Kinase Activity Assay: (TIE2-FP)
Activation of Recombinant Tie2 Activation:
Recombinant GST-Tie2 was activated by incubating the enzyme in 20 mM Tris-HCl, pH 7.5, 12 mM MgCl2, 100 mM NaCl, 20 μM sodium vanidate, 1 mM DT and 300 μM ATP at room temperature for 2 hours. The activation mixture was then passed through a NAP-25 desalting column (Pharmacia Biotech cat. no. 17-0852-O2) to remove the free ATP. The activated enzyme was stored as aliquots at −80° C. in 20 mM Tris-HCl, pH 7.5 and 100 mM NaCl.
The final assay conditions were 50 mM HEPES, pH 7.5, 5% DMSO (when screening compounds), 200 μM ATP, 5 mM MgCl2, 1 mM DTT, 50 μM sodium vanidate, 1 nM activated enzyme, and 200 μM peptide. IC50's of compounds were measured under subsaturating ATP (200 μM) and varing concentrations of activated Tie2 and peptide substrate (RFWKYEFWR-OH; MW 1873 Da, TFA salt). Panvera Anti-phosphotyrosine antibody (Cat#P2840) and PTK Green Tracer (Cat#P2842) were used to detect the phosphorylated peptide. Polarization was measured on a TECAN Polarion in 138-second cycles for 30 minutes at room temperature. IC50's were then determined from the % polarization using normal calculation methods.

Measured: IC50

T1 sequence (P35968 786-1356 limits assumed): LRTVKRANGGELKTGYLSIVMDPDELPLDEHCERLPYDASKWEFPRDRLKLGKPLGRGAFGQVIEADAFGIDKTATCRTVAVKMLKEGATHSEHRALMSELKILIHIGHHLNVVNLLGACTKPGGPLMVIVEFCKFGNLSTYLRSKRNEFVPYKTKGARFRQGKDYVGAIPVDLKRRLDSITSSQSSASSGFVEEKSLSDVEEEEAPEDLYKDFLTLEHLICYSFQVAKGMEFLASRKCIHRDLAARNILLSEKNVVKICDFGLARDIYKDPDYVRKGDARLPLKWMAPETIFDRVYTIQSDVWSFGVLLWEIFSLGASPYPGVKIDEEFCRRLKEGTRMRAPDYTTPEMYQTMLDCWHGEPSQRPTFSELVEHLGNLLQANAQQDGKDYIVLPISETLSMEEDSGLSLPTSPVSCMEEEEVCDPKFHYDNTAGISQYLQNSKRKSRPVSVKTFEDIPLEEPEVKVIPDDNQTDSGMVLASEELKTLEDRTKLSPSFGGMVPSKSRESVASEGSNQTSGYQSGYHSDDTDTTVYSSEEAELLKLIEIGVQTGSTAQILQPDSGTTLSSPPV

CCS(=O)(=O)c1ccc(OC)c(Nc2nccc(N(C)c3ccc(NC(=O)Nc4cccc(F)c4)cc3)n2)c1 [Example 18, N-{4-[(2-{[5-(Ethylsulfonyl)-2-methoxyphenyl]amino}pyrimidin-4-yl)(methyl)amino]phenyl}-N′-(3-fluorophenyl)urea]
< 100 nM: all assays above

CCc1cccc(NC(=O)Nc2ccc(N(C)c3ccnc(Nc4ccc(S(N)(=O)=O)cc4)n3)cc2)c1 [Example 20, 4-({4-[[4-({[(3-ethylphenyl)amino]carbonyl}amino)phenyl](methyl)amino]pyrimidin-2-yl}amino)benzenesulfonamide]
< 100 nM: all assays above

CN(c1ccc(NC(=O)Nc2ccc(OC(F)(F)F)cc2)cc1)c1ccnc(Nc2ccc(S(N)(=O)=O)cc2)n1 [Example 21, 4-{[4-(methyl{4-[({[4-(trifluoromethoxy)phenyl]amino}carbonyl)amino]phenyl}amino)pyrimidin-2-yl]amino}benzenesulfonamide]
< 100 nM: all assays above
